Reference: publication PMC12156041, “Design, Synthesis and Antiplasmodial Activities of a Library of Fluorine-Based 3-Benzylmenadiones” (Molecules, 2025)
≈ marks a conversion by molar mass, not a printed value. Where “and” joins values, the source holds several entries; their conditions need not be identical. Identical values can stand only once. Like-named read-outs stand apart in the source and are kept apart here.

What was measured:
[1] = system: P. falciparum NF54 strain; test: P. falciparum NF54 [3H]hypoxanthine incorporation assay, 72 h, 0.5% Albumax; assay type: cell-based; conditions: Plasmodium falciparum
[2] = system: P. falciparum NF54 strain; test: P. falciparum NF54 24 h assay (species shift assay); assay type: cell-based; conditions: Plasmodium falciparum, NF54, read-out: IC50 Pf NF54; 24 h assay
[3] = system: P. berghei (GFP ANKA malaria strain); test: In vitro efficacy testing with P. berghei, 24 h (species shift assay); assay type: cell-based; conditions: Plasmodium berghei, read-out: IC50 Pb; P. berghei, 24 h assay
[4] = system: P. berghei GFP ANKA malaria strain; test: Drug assay in vivo in P. berghei-infected mice; conditions: p.o. 4 × 50 mg/kg; for Parasitized RBC over 100: individual mice; for Parasitized RBC over 100 / Parasitized RBC over 100, Avg. / % of Control / Activity (%): day 4; for % of Control: parasitemia; for Activity (%): reduction of parasitemia versus control
[5] = Thermodynamic aqueous solubility (shake-flask, PBS-10% DMSO); assay type: physicochemical; conditions: PBS with 10% DMSO, aqueous with cosolvent or surfactant or cyclodextrin, PBS pH 7.4, 10% DMSO, 20 °C, read-out: Thermodynamic aq. Solubility in PBS-10% DMSO
Method: Thermodynamic Aqueous Solubility: The shake-flask method enabled us to determine the apparent thermodynamic solubilities of the DMSO stock solutions of the compounds. […] The mixture was equilibrated at 20 °C for 24 h. After centrifugation, the supernatant was injected into an HPLC column coupled to an LC-MS apparatus (with UV–Vis detection) in order to determine the compound concentration. […] These solutions were also injected in order to calibrate the concentration determination process. […] Measurements were performed in duplicate.

[6] = Chromatographic Hydrophobicity Index (CHI) by HPLC; assay type: physicochemical; conditions: for CHI: Chromatographic Hydrophobicity Index, lipophilicity index; for chromatographic logD: pH 7.4, read-out: log D7.4
Method: Determination of CHI values: Compound lipophilicity influences permeability and propensity to nonspecific binding to plasma proteins. Although precise, the classical “shake flask” method is not always appropriate for the determination of high hydrophobicity, which can be alternatively measured using the Chromatographic Hydrophobicity Index method. This HPLC-based technique leads to rapid and cheap estimates of partition coefficients. […] A measure of 5 μL was injected onto the HPLC (with UV–Vis detection). […] The measurements were performed in duplicate. […] The CHI is approximately equal to the proportion of acetonitrile in the mobile phase when the compound is eluted from the column.

[7] = system: P. falciparum NF54 strain; conditions: grey line ref 9; cited from earlier work
[8] = system: rat myoblast cell line (L6 cells); conditions: grey line ref 9; cited from earlier work
[9] = system: P. falciparum NF54 strain; test: Serum shift assay, P. falciparum NF54 72 h in 50% human serum; conditions: for Serum Shift: 50% human serum versus 0.5% Albumax; for IC50: Plasmodium falciparum, NF54, 72 h, read-out: IC50 NF54 72 h, 50% Human Serum
[10] = system: P. falciparum strain Dd2; set-up: method as in doi:10.1002/ejoc.201600144; conditions: multi-resistant P. falciparum strain Dd2 ref 12; cited from earlier work
[11] = NF54, 72 h, read-out: IC50 NF54 72 h, 0.5% Albumax, Table 5B, 0.5% Albumax
[12] = NF54, 72 h, read-out: IC50 Pf NF54, 72 h, Table 5A, species shift experiment

SMILES	IC50 [1, 11] [µM]	IC50 [1, 12] [µM]	IC50 ([1]; NF54, as stated in text, read-out: IC50 against P. falciparum NF54) [µM]	IC50 [2] [µM]	IC50 [3] [µM]	Parasitized RBC over 100 ([4]; 50 mg/kg)	Avg. Mouse Survival [4] [days]	Parasitized RBC over 100, Avg. [4]	% of Control [4] [%]	Activity (%) [4] [%]	solubility thermodynamic at 24 h [5] [µM]	CHI [6]	chromatographic logD [6]	IC50 [7] [µM]	Tox/L6 [8] [µM]	Serum Shift [9]	IC50 [9] [µM]	Activity (%) ([4]; 50 mg/kg)	Activity (%) ([4]; listed as 6-fluoro–plasmodione, 50 mg/kg)	IC50 [10] [µM]
CC1=C(Cc2c(F)c(F)c(F)c(F)c2F)C(=O)c2ccccc2C1=O [A-b-47]	0.081	0.091	< 0.1	0.184	0.265	65.4 and 62.4 and 72.5	4.0	66.77	113.36	−13.36	0.33 ± 0.01 (≈ 0.116 µg/mL)	115	4.67	0.06	161.0	4.0	0.324	–	–	–
CC1=C(Cc2ccc(C(F)(F)F)cc2)C(=O)c2cc(F)ccc2C1=O [Cpnd 6-F-PD]	0.093	0.12	–	0.104	0.17	28.2 and 35.8 and 27.8	7.0	30.60	51.95	–	0.06 ± 0.01 (≈ 0.0209 µg/mL)	117	4.75	0.181	44.7	0.9	0.08	48.05	50	0.059 ± 0.011
CC1=C(Cc2ccc(C(F)(F)F)cc2)C(=O)c2ccc(F)cc2C1=O [Cpnd 7-F-PD]	0.089	0.093	–	0.157	0.138	64.7 and 69.0 and 62.2	4.0	65.30	110.87	−10.87	0.59 ± 0.01 (≈ 0.205 µg/mL)	–	–	–	–	4.2	0.377	–	–	–
